PMC7859440, “Transporter Gene Regulation in Sandwich Cultured Human Hepatocytes Through the Activation of Constitutive Androstane Receptor (CAR) or Aryl Hydrocarbon Receptor (AhR)” (Frontiers in Pharmacology, 2021)
Values joined by “and” are separate entries in the source; they are usually repeats but may differ in a detail not shown here. Equal entries are not always repeated.

How the values were obtained:
CYP3A4 = assay: in vitro; conditions: human
Experimental: (§1) Cryopreserved human hepatocytes were quickly thawed at 37°C and then transferred into hepatocyte thawing medium. Cells were pelleted at 100 × g for 10 min and then resuspended in hepatocyte complete plating medium (CP medium). The cells were then seeded at 65,000 cells per well in 96-well collagen I coated plates. After cell attachment (4–6 h post-seeding), CP medium was exchanged for ice-cold complete incubation medium (HI medium) containing BD Matrigel™ at the concentration of 0.25 mg/ml. The cells were then incubated overnight at 37°C in a humidified 5% CO2 incubator. […] Cell death or loss of adhesion of hepatocytes during or after treatment were examined by microscopy.
(§2) A RNeasy 96 Kit (Qiagen) was used to extract the total cellular RNA from sandwich cultured hepatocytes in 96-well plates following the manufacturer's instructions. A total volume of 200 μL RNA was obtained via the column elution provided in the RNeasy kit. Five μL RNA extraction was mixed with TaqMan® Fast Virus 1-Step Master Mix (Life Technologies) in a final reaction volume of 20 μL and qRT-PCR was achieved using a QuantStudio 6 Flex Real-Time PCR System (Life Technologies), following the manufacturer's instructions. β-actin mRNA expression in the SCHH was used as a house-keeping gene for the normalization of target gene expressions. The mRNA levels in SCHH treated with AhR or CAR activators were expressed by a fold change, compared to the gene expressions without the treatment. […] Gene expression for each condition is expressed as a fold-change of mean ± standard deviation (SD) from three independent donors (each performed in triplicate). All primer and probe sets were purchased from Life Technologies (Table 2). When concentration-dependent induction observed, the in vitro induction mRNA data were fitted using the sigmoid 3-parameter equation in GraphPad Prism (La Jolla, CA) to estimate the in vitro concentration of inducer that produced half the maximum induction values (EC50).

CYP2B6 = assay: in vitro; conditions: human
Experimental: as §1, §2

SLC22A9 (OAT7) = assay: gene induction in sandwich-cultured human hepatocytes (qRT-PCR); type: cell-based; conditions: SCHH, 72 h; TCDD 50 nM, OP 50 µM, CITCO 5 µM, PB 1,000 µM (highest conc.); mean ± SD, three donors
ABCC2 (MRP2) = assay: as above; type: cell-based
Experimental: as §1
(§3) A RNeasy 96 Kit (Qiagen) was used to extract the total cellular RNA from sandwich cultured hepatocytes in 96-well plates following the manufacturer's instructions. A total volume of 200 μL RNA was obtained via the column elution provided in the RNeasy kit. Five μL RNA extraction was mixed with TaqMan® Fast Virus 1-Step Master Mix (Life Technologies) in a final reaction volume of 20 μL and qRT-PCR was achieved using a QuantStudio 6 Flex Real-Time PCR System (Life Technologies), following the manufacturer's instructions. β-actin mRNA expression in the SCHH was used as a house-keeping gene for the normalization of target gene expressions. The mRNA levels in SCHH treated with AhR or CAR activators were expressed by a fold change, compared to the gene expressions without the treatment. The 2^−ΔΔCt method ([Livak and Schmittgen, 2001]) was used to analyze the relative changes in gene expression, where the Ct is the cycle number at which the fluorescence in the reaction crosses the preset arbitrary threshold; the ΔCt represents the difference between the Ct target and reference and the ΔΔCt is the difference between the ΔCt of the test and the ΔCt of the preassigned control. Gene expression for each condition is expressed as a fold-change of mean ± standard deviation (SD) from three independent donors (each performed in triplicate). All primer and probe sets were purchased from Life Technologies (Table 2). When concentration-dependent induction observed, the in vitro induction mRNA data were fitted using the sigmoid 3-parameter equation in GraphPad Prism (La Jolla, CA) to estimate the in vitro concentration of inducer that produced half the maximum induction values (EC50).

SLC22A1 (OCT1) = assay: as above; type: cell-based
Experimental: as §1, §3

SLCO1B1 (OATP1B1) = assay: as above; type: cell-based
Experimental: as §1, §3

ABCC4 (MRP4) = assay: as above; type: cell-based
Experimental: as §1, §3

ABCC5 (MRP5) = assay: as above; type: cell-based
Experimental: as §1, §3

ABCG2 (BCRP) = assay: as above; type: cell-based
Experimental: as §1, §3

SLCO2B1 (OATP2B1) = assay: as above; type: cell-based
Experimental: as §1, §3

ABCB11 (BSEP) = assay: as above; type: cell-based
Experimental: as §1, §3

SLCO1B3 (OATP1B3) = assay: as above; type: cell-based
Experimental: as §1, §3

ABCC6 (MRP6) = assay: as above; type: cell-based
Experimental: as §1, §3

ABCC3 (MRP3) = assay: as above; type: cell-based
Experimental: as §1, §3

ABCB1 (MDR1) = assay: as above; type: cell-based
Experimental: as §1, §3

SLC16A1 (MCT1) = assay: as above; type: cell-based; conditions: SCHH, 72 h; TCDD 50 nM, OP 50 µM, CITCO 5 µM, PB 1,000 µM (highest conc.); mean ± SD, three donors
Description: (§4) A RNeasy 96 Kit (Qiagen) was used to extract the total cellular RNA from sandwich cultured hepatocytes in 96-well plates following the manufacturer's instructions. […] The 2^−ΔΔCt method ([Livak and Schmittgen, 2001]) was used to analyze the relative changes in gene expression, where the Ct is the cycle number at which the fluorescence in the reaction crosses the preset arbitrary threshold; the ΔCt represents the difference between the Ct target and reference and the ΔΔCt is the difference between the ΔCt of the test and the ΔCt of the preassigned control. Gene expression for each condition is expressed as a fold-change of mean ± standard deviation (SD) from three independent donors (each performed in triplicate). […]

SLC51A (OSTα) = assay: as above; type: cell-based; conditions: SCHH, 72 h; TCDD 50 nM, OP 50 µM, CITCO 5 µM, PB 1,000 µM (highest conc.); mean ± SD, three donors
Description: as §4

SLC15A1 (PEPT1) = assay: as above; type: cell-based; conditions: SCHH, 72 h; TCDD 50 nM, OP 50 µM, CITCO 5 µM, PB 1,000 µM (highest conc.); mean ± SD, three donors
Description: as §4

SLC10A1 (NTCP) = assay: as above; type: cell-based; conditions: SCHH, 72 h; TCDD 50 nM, OP 50 µM, CITCO 5 µM, PB 1,000 µM (highest conc.); mean ± SD, three donors
Experimental: A RNeasy 96 Kit (Qiagen) was used to extract the total cellular RNA from sandwich cultured hepatocytes in 96-well plates following the manufacturer's instructions. A total volume of 200 μL RNA was obtained via the column elution provided in the RNeasy kit. Five μL RNA extraction was mixed with TaqMan® Fast Virus 1-Step Master Mix (Life Technologies) in a final reaction volume of 20 μL and qRT-PCR was achieved using a QuantStudio 6 Flex Real-Time PCR System (Life Technologies), following the manufacturer's instructions. β-actin mRNA expression in the SCHH was used as a house-keeping gene for the normalization of target gene expressions. The mRNA levels in SCHH treated with AhR or CAR activators were expressed by a fold change, compared to the gene expressions without the treatment. The 2^−ΔΔCt method ([Livak and Schmittgen, 2001]) was used to analyze the relative changes in gene expression, where the Ct is the cycle number at which the fluorescence in the reaction crosses the preset arbitrary threshold; the ΔCt represents the difference between the Ct target and reference and the ΔΔCt is the difference between the ΔCt of the test and the ΔCt of the preassigned control. Gene expression for each condition is expressed as a fold-change of mean ± standard deviation (SD) from three independent donors (each performed in triplicate). […] When concentration-dependent induction observed, the in vitro induction mRNA data were fitted using the sigmoid 3-parameter equation in GraphPad Prism (La Jolla, CA) to estimate the in vitro concentration of inducer that produced half the maximum induction values (EC50).

SLC22A7 (OAT2) = assay: as above; type: cell-based; conditions: SCHH, 72 h; TCDD 50 nM, OP 50 µM, CITCO 5 µM, PB 1,000 µM (highest conc.); mean ± SD, three donors
Description: as §4

SLC29A2 (ENT2) = assay: as above; type: cell-based; conditions: SCHH, 72 h; TCDD 50 nM, OP 50 µM, CITCO 5 µM, PB 1,000 µM (highest conc.); mean ± SD, three donors
Description: as §4

SLC22A5 (OCTN2) = assay: as above; type: cell-based; conditions: SCHH, 72 h; TCDD 50 nM, OP 50 µM, CITCO 5 µM, PB 1,000 µM (highest conc.); mean ± SD, three donors
UGT1A1 = assay: as above
Experimental: as §1, §3

SLC29A1 (ENT1) = assay: as above; type: cell-based; conditions: SCHH, 72 h; TCDD 50 nM, OP 50 µM, CITCO 5 µM, PB 1,000 µM (highest conc.); mean ± SD, three donors
Description: as §4

CYP1A2 = conditions: SCHH, 72 h; TCDD 50 nM, OP 50 µM, CITCO 5 µM, PB 1,000 µM (highest conc.); mean ± SD, three donors
Experimental: as §1
A RNeasy 96 Kit (Qiagen) was used to extract the total cellular RNA from sandwich cultured hepatocytes in 96-well plates following the manufacturer's instructions. A total volume of 200 μL RNA was obtained via the column elution provided in the RNeasy kit. […] Gene expression for each condition is expressed as a fold-change of mean ± standard deviation (SD) from three independent donors (each performed in triplicate). […]

## CCC1(c2ccccc2)C(=O)NC(=O)NC1=O [PB, phenobarbital]
CYP3A4
  EC50: 343 µM
CYP2B6
  EC50 at 72 h: 726 ± 655 µM
SLC22A9 (OAT7)
  SLC22A9 (OAT7) mRNA fold change: 0.6 ± 0.2 fold
ABCC2 (MRP2)
  ABCC2 (MRP2) mRNA fold change: 1.5 ± 0.3 fold
SLC22A1 (OCT1)
  SLC22A1 (OCT1) mRNA fold change: 1.5 ± 0.6 fold
SLCO1B1 (OATP1B1)
  SLCO1B1 (OATP1B1) mRNA fold change: 1.5 ± 0.8 fold
ABCC4 (MRP4)
  ABCC4 (MRP4) mRNA fold change: 1.8 ± 0.4 fold
ABCC5 (MRP5)
  ABCC5 (MRP5) mRNA fold change: 1.2 ± 0.4 fold
ABCG2 (BCRP)
  ABCG2 (BCRP) mRNA fold change: 1.6 ± 0.3 fold
SLCO2B1 (OATP2B1)
  SLCO2B1 (OATP2B1) mRNA fold change: 1.8 ± 0.9 fold
ABCB11 (BSEP)
  ABCB11 (BSEP) mRNA fold change: 1.1 ± 0.3 fold
SLCO1B3 (OATP1B3)
  SLCO1B3 (OATP1B3) mRNA fold change: 0.9 ± 0.2 fold
ABCC6 (MRP6)
  ABCC6 (MRP6) mRNA fold change: 1.3 ± 0.3 fold
ABCC3 (MRP3)
  ABCC3 (MRP3) mRNA fold change: 1.0 ± 0.4 fold
ABCB1 (MDR1)
  ABCB1 (MDR1) mRNA fold change: 1.3 ± 0.6 fold
SLC16A1 (MCT1)
  SLC16A1 (MCT1) mRNA fold change: 1.1 ± 0.2 fold
SLC51A (OSTα)
  SLC51A (OSTα) mRNA fold change: 0.9 ± 0.2 fold
SLC15A1 (PEPT1)
  SLC15A1 (PEPT1) mRNA fold change: 1.1 ± 0.5 fold
SLC10A1 (NTCP)
  SLC10A1 (NTCP) mRNA fold change: 1.4 ± 0.7 fold
SLC22A7 (OAT2)
  SLC22A7 (OAT2) mRNA fold change: 0.5 ± 0.2 fold
SLC29A2 (ENT2)
  SLC29A2 (ENT2) mRNA fold change: 0.9 ± 0.3 fold
SLC22A5 (OCTN2)
  SLC22A5 (OCTN2) mRNA fold change: 0.8 ± 0.3 fold
UGT1A1
  UGT1A1 mRNA fold change: 4.2 fold and 4.2 ± 1.9 fold
UGT1A1; human
  EC50: 639 ± 444 µM
SLC29A1 (ENT1)
  SLC29A1 (ENT1) mRNA fold change: 0.9 ± 0.2 fold
CYP1A2
  CYP1A2 mRNA fold change: 1.3 ± 0.4 fold
